Results taken from patent publication US10087191B2, “Piperidine derivative and preparation method and pharmaceutical use thereof” (Jiangsu Hengrui Medicine Co., Ltd., priority 2015, dated 2018).

Tests used:
[1] = test system: MCF7 cells; assay: Inhibition of the proliferation of MCF7 cells (Cell Titer-Glo); format: cell-based; conditions: Homo sapiens, MCF-7 cells, 72 hours, read-out: IC50 value of inhibition effect on the proliferation of MCF7 cells
Summary of the method: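 Viability by Cell Titer-Glo luminescence; IC50 from signal versus log concentration.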

[2] = Pharmacokinetics assay in BALB/C nude mice after intragastrical administration; format: in vivo; conditions: female, mouse, plasma, po, 3 mg/kg; for AUC: read-out: Area Under Curve AUC; for CL/F: read-out: Clearance CL/F (converted); for half-life: read-out: Half-Life t½ (converted); for MRT: read-out: Mean Residence Time MRT; for Cmax: read-out: Plasma Conc. Cmax
Experimental: BALB/C nude mice were used as test animals. The drug concentration in plasma at different time points was determined by LC/MS/MS after intragastrical administration of the compounds of Examples 10, 14, 20, 21, 57, 68, 71, 73, 74, 76 and 89 to BALB/C nude mice. The pharmacokinetic behavior of the compounds of the present invention was studied and evaluated in BALB/C nude mice.
Ninety-nine (99) female BALB/C nude mice were equally divided into 11 groups, which were purchased from SINO-BRITSH SIPPR/BK LAB. ANIMAL LTD., CO, with Certificate No.: SCXK (Shanghai) 2008-0016.
The appropriate amount of each test compound was weighed, and successively added with 9% PEG400+0.5% tween 80+0.5% PVP+90% aqueous solution of 0.5% CMC.
After an overnight fast, 99 female BALB/C nude mice were equally divided into 11 groups, and administered the test compounds intragastrically at an administration volume of 0.2 mL/10 g.
Blood (0.1 mL) was sampled (3 mice at each time point) at 0.5, 1.0, 2.0, 4.0, 6.0, 8.0, 11.0 and 24.0 hours after administration. The samples were stored in heparinized test tubes, and centrifuged for 10 minutes at 3,500 rpm to separate the blood plasma. The plasma samples were stored at −20° C. The plasma concentration of the test compounds in BALB/C nude mice after intragastrical administration was determined by LC/MS/MS.
Pharmacokinetic parameters of the compounds of Examples 10, 14, 20, 21, 57, 68, 71, 73, 74, 76 and 89 of the present invention are shown below.

[3] = biological target: estrogen receptor (ER) (Homo sapiens (Human), UniProt P03372); assay: Inhibition of the binding of estrogen (E) to estrogen receptor (ER), MCF-7/ERE-luciferase reporter cells; format: cell-based; conditions: MCF-7/ERE-luciferase cells, 0.1 nM estradiol, 24 hours; read-out: IC50 value of inhibition effect on the binding of E to ER
Sequence of estrogen receptor (ER) (P03372 whole entry): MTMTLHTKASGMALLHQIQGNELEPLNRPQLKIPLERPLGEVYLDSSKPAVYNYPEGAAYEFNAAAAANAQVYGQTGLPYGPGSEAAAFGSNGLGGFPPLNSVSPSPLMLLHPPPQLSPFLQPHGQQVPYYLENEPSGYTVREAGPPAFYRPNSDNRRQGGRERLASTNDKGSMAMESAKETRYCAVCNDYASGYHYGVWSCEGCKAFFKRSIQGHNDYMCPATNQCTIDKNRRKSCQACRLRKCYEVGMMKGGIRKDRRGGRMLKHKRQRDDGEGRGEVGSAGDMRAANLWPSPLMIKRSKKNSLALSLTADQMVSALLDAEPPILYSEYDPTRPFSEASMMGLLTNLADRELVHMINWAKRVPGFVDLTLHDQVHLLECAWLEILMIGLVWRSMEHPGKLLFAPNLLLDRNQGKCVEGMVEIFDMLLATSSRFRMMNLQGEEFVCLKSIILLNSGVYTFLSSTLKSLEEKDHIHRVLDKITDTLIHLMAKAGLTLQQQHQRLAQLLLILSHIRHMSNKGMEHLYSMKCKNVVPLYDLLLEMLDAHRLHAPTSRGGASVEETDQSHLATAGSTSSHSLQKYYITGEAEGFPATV

[4] = biological target: ERα (Homo sapiens (Human), UniProt P03372); assay: Degradation effect on ERα in MCF-7 cells (ERα Duoset ELISA); format: cell-based; conditions: MCF-7 cells; read-out: IC50 value of the degradation effect on ERα
Sequence of ERα (P03372 whole entry): as above
Experimental: In order to determine the degradation effect on ER induced by the compounds of the present invention, the following method was used to determine the degradation effect of the compounds of the present invention on ER.
MCF-7 cell line (TChu 74, Cell Bank of Chinese Academy of Sciences typical culture preservation Committee)
ERα Duoset Kit (#DYC5715E, R&D System)
MCF-7 cells were incubated in DMEM/F-12 medium containing 10% FBS.
On the first day of the experiment, MCF-7 cells were resuspended in DMEM/F-12 medium containing 10% FBS treated by activated carbon, then inoculated into a 48-well plate with a density of 50,000 cells/well and incubated for 22-24 hours.
On the second day of the experiment, the test compound was diluted with medium and added to a 48-well plate. The ERα-capture antibody was diluted to 1 μg/ml with PBS, and added to a 96-well plate at 100 μl/well. The plate was sealed and coated overnight at room temperature.
On the third day of the experiment, the coated 96-well plate was washed twice with PBS, added with a sealing solution (1% BSA in PBS) at 110 μl/well and sealed for 1 hour at room temperature. The 48-well plate was washed once with PBS, and the residual liquid was removed. Then, 60 μl of lysis (6 M urea, 1 mM EDTA, 0.5% Triton X-100, 1 mM PMSF, Protease Inhibitor cocktail) was added to each well. After lysis on ice for 15 minutes, the diluent (1 mM EDTA, 0.5% TritonX-100 dissolved in PBS) was added. The cell-diluted lysate was transferred to a 96-well plate at 100 μl/well, then the plate was incubated at room temperature for 2 hours. The diluted primary antibody was added after the plate was washed 4 times with a washing liquid (PBST). After incubation for 1 hour, the 96-well plate was washed 4 times, and the second antibody was added, then the plate was incubated for 30 minutes. After the plate was washed with a washing liquid, TMB chromogenic solution was added and incubated for 15 minutes. The reaction was stopped by the addition of 1 M H2SO4, then the light absorption at 450 nm was read.

Compound	IC50 [1]	AUC [2]	CL/F [2]	half-life [2]	MRT [2]	Cmax [2]	IC50 [3]	DC50 [4]
C[C@@H]1Cc2cc3c(cc2[C@@H](c2c(F)cc(/C=C/C(=O)O)cc2F)N1CC(C)(C)F)OCO3 [Example 71, (E)-3-(3,5-difluoro-4-((5S,7R)-6-(2-fluoro-2-methylpropyl)-7-methyl-5,6,7,8-tetrahydro-[1,3]dioxolo[4,5-g]isoquinolin-5-yl)phenyl)acrylic acid]	0.12 nM	8.81 µg·h/mL	9.45 L/h/kg	1.59 h	2.62 h	4.13 µg/mL	0.74 nM	0.06 nM
C[C@@H]1Cc2c(oc3cccc(F)c23)[C@@H](c2c(F)cc(/C=C/C(=O)O)cc2F)N1CC(C)(C)F [Example 74, (E)-3-(3,5-difluoro-4-((1R,3R)-5-fluoro-2-(2-fluoro-2-methylpropyl)-3-methyl-1,2,3,4-tetrahydrobenzofuro[2,3-c]pyridin-1-yl)phenyl)acrylic acid]	0.09 nM	5.85 µg·h/mL	8.54 L/h/kg	3.16 h	2.41 h	2.53 µg/mL	0.21 nM	1.35 nM
C[C@@H]1Cc2c(oc3ccccc23)[C@@H](c2c(F)cc(/C=C/C(=O)O)cc2F)N1CC(C)(C)F [Example 68, (E)-3-(3,5-difluoro-4-((1R,3R)-2-(2-fluoro-2-methylpropyl)-3-methyl-1,2,3,4-tetrahydrobenzofuro[2,3-c]pyridin-1-yl)phenyl)acrylic acid]	0.04 nM	13.2 µg·h/mL	6.32 L/h/kg	2.32 h	3.7 h	3.42 µg/mL	0.31 nM	0.11 nM
C[C@@H]1Cc2cc(-c3cnn(C)c3)ccc2[C@@H](c2c(F)cc(/C=C/C(=O)O)cc2F)N1CC(C)(C)F [Example 57, (E)-3-(3,5-difluoro-4-((1S,3R)-2-(2-fluoro-2-methylpropyl)-3-methyl-6-(1-methyl-1H-pyrazol-4-yl)-1,2,3,4-tetrahydroisoquinolin-1-yl)phenyl)acrylic acid]	0.01 nM	15.1 µg·h/mL	3.31 L/h/kg	2.78 h	3.23 h	5.07 µg/mL	0.33 nM	0.1 nM
CCn1cc(-c2ccc3oc4c(c3c2)C[C@@H](C)N(CC(C)(C)F)[C@@H]4c2c(F)cc(/C=C/C(=O)O)cc2F)cn1 [Example 97, (E)-3-(4-((1R,3R)-6-(1-ethyl-1H-pyrazol-4-yl)-2-(2-fluoro-2-methylpropyl)-3-methyl-1,2,3,4-tetrahydrobenzofuro[2,3-c]pyridin-1-yl)-3,5-difluorophenyl)acrylic acid]	0.2 nM	–	–	–	–	–	0.24 nM	6.11 nM
CC1Cc2cc(-c3cnn(CCF)c3)ccc2C(c2c(F)cc(/C=C/C(=O)O)cc2F)N1CC(C)(C)F [Example 48, (E)-3-(3,5-difluoro-4-((1S,3R/1R,3S)-2-(2-fluoro-2-methylpropyl)-6-(1-(2-fluoroethyl)-1H-pyrazol-4-yl)-3-methyl-1,2,3,4-tetrahydroisoquinolin-1-yl)phenyl)acrylic acid]	0.64 nM	–	–	–	–	–	1.82 nM	7.36 nM
C[C@@H]1Cc2cc(-c3cnn(C(F)F)c3)ccc2[C@@H](c2c(F)cc(/C=C/C(=O)O)cc2F)N1CC(C)(C)F [Example 14, (E)-3-(4-((1S,3R)-6-(1-(difluoromethyl)-1H-pyrazol-4-yl)-2-(2-fluoro-2-methylpropyl)-3-methyl-1,2,3,4-tetrahydroisoquinolin-1-yl)-3,5-difluorophenyl)acrylic acid]	0.06 nM	32.7 µg·h/mL	1.53 L/h/kg	4.74 h	5.93 h	6.75 µg/mL	0.29 nM	0.64 nM
CC1Cc2cc3c(cc2C(c2c(F)cc(/C=C/C(=O)O)cc2F)N1CC(C)(C)F)OCCO3 [Example 2, (E)-3-(3,5-difluoro-4-((6S,8R/6R,8S)-7-(2-fluoro-2-methylpropyl)-8-methyl-2,3,6,7,8,9-hexahydro-[1,4]dioxino[2,3-g]isoquinolin-6-yl)phenyl)acrylic acid]	0.49 nM	–	–	–	–	–	3.2 nM	0.95 nM
CC1Cc2cc(-c3cnn(C)c3)ccc2C(c2c(F)cc(/C=C/C(=O)O)cc2F)N1CC(C)(C)F [Example 55, (E)-3-(3,5-difluoro-4-((1S,3R/1R,3S)-2-(2-fluoro-2-methylpropyl)-3-methyl-6-(1-methyl-1H-pyrazol-4-yl)-1,2,3,4-tetrahydroisoquinolin-1-yl)phenyl)acrylic acid]	0.2 nM	–	–	–	–	–	0.82 nM	0.69 nM
CC1Cc2c(oc3ccc(-c4cnn(C)c4)cc23)C(c2c(F)cc(/C=C/C(=O)O)cc2F)N1CC(C)(C)F [Example 89, (E)-3-(3,5-difluoro-4-((1R,3R/1S,3S)-2-(2-fluoro-2-methylpropyl)-3-methyl-6-(1-methyl-1H-pyrazol-4-yl)-1,2,3,4-tetrahydrobenzofuro[2,3-c]pyridin-1-yl)phenyl)acrylic acid]	0.08 nM	7.71 µg·h/mL	6.49 L/h/kg	3.97 h	5.69 h	1.27 µg/mL	0.21 nM	0.31 nM
CC1Cc2c(oc3ccc(-c4cn[nH]c4)cc23)C(c2c(F)cc(/C=C/C(=O)O)cc2F)N1CC(C)(C)F [Example 88, (E)-3-(3,5-difluoro-4-((1R,3R/1S,3S)-2-(2-fluoro-2-methylpropyl)-3-methyl-6-(1H-pyrazol-4-yl)-1,2,3,4-tetrahydrobenzofuro[2,3-c]pyridin-1-yl)phenyl)acrylic acid]	0.67 nM	–	–	–	–	–	1.22 nM	1.61 nM
CC1Cc2cc(-c3ccccc3)ccc2C(c2c(F)cc(/C=C/C(=O)O)cc2F)N1CC(C)(C)F [Example 59, (E)-3-(3,5-difluoro-4-((1S,3R/1R,3S)-2-(2-fluoro-2-methylpropyl)-3-methyl-6-phenyl-1,2,3,4-tetrahydroisoquinolin-1-yl)phenyl)acrylic acid]	1.29 nM	–	–	–	–	–	5.56 nM	6.25 nM
CCn1cc(-c2ccc3c(c2F)CC(C)N(CC(C)(C)F)C3c2c(F)cc(/C=C/C(=O)O)cc2F)cn1 [Example 47, (E)-3-(4-((1S,3R/1R,3S)-6-(1-ethyl-1H-pyrazol-4-yl)-5-fluoro-2-(2-fluoro-2-methylpropyl)-3-methyl-1,2,3,4-tetrahydroisoquinolin-1-yl)-3,5-difluorophenyl)acrylic acid]	0.71 nM	–	–	–	–	–	1.5 nM	3.54 nM
